# Measurements taken from patent publication US20200017496A1 (priority 2017, published 2020).
# pIC50: −log10 of the molar value. Read-outs that look alike come from different tables or passages of the source.
# Experiments:
# TEM-1 = target: T1, TEM-1 (Escherichia coli, UniProt P62593); test: β-lactamase inhibitory activity, IC50 (nitrocefin hydrolysis); format: biochemical
# T1 construct: made in house; host or cells: E. coli
# SHV-1 = target: T2, SHV-1 (Klebsiella pneumoniae, UniProt P0AD64); test: biochemical
# T2 construct: made in house; host or cells: E. coli
# T2 sequence (P0AD64 22-286): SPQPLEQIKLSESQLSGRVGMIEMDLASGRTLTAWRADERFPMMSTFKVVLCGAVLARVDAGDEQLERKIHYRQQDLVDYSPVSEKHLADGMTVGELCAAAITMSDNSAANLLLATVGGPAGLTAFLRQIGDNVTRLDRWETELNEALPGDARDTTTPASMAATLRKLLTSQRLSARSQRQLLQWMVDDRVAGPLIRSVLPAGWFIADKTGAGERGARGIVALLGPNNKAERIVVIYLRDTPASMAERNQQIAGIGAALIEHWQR
# SHV-12 = target: T3, SHV-12 (Klebsiella pneumoniae, UniProt P0AD64, E235K/G234S/L31Q); test: β-lactamase inhibitory activity, IC50 (nitrocefin hydrolysis); format: biochemical
# T3 construct: made in house; host or cells: E. coli
# T3 sequence (P0AD64 22-286 L31Q/G234S/E235K): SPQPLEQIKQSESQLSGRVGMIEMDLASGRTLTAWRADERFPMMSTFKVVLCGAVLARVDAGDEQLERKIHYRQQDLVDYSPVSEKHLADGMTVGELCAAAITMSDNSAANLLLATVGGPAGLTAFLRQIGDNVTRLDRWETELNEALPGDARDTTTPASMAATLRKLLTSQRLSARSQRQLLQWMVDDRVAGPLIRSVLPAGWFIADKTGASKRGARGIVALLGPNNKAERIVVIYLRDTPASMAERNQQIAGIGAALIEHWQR
# CTX-M-15 = target: T4, CTX-M-15 (Escherichia coli, UniProt Q9EXV5); test: biochemical
# T4 construct: made in house; host or cells: E. coli
# T4 sequence (Q9EXV5 entry or part of it): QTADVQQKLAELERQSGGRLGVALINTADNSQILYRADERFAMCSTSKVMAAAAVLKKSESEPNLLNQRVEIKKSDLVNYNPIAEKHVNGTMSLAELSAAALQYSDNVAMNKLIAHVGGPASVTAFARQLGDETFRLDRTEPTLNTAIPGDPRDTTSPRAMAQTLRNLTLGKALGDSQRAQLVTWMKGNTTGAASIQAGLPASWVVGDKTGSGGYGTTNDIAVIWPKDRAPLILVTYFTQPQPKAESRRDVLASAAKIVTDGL
# KPC-2 = target: T5, KPC-2 (Klebsiella pneumoniae, UniProt Q9F663); test: biochemical
# T5 construct: made in house; host or cells: E. coli
# T5 sequence (Q9F663 25-293 limits assumed): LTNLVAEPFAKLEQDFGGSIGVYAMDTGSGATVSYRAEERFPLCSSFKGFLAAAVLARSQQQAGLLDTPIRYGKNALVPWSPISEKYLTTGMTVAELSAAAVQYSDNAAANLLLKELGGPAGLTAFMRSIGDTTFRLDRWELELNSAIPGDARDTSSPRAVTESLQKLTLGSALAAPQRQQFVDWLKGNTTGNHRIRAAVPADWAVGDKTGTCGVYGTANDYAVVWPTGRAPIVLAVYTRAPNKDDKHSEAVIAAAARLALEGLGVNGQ
# OXA-40 = target: T6, OXA-40 (Acinetobacter baumannii, UniProt Q8RLA6); test: biochemical
# T6 construct: made in house; host or cells: E. coli
# T6 sequence (Q8RLA6 entry or part of it): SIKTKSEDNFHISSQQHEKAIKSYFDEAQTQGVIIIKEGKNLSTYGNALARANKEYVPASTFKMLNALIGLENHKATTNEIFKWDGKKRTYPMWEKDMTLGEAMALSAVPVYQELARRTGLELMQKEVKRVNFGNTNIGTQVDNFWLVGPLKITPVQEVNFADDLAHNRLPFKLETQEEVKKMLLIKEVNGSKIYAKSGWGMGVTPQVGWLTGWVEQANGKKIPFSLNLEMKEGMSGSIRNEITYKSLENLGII
# Experimental: (§1) Method 1: β-Lactamase Inhibitory Activity, Determination of IC50 (Table 1)
# (§2) Enzymes were cloned in E. coli expression vector, expressed and purified in house using classical procedures. […] After 30 min of pre-incubation at room temperature, 155 μL of NCF (100 μM final) were finally added in each well. […] Enzyme activity was obtained by subtracting the background from the final signal, and was converted to enzyme inhibition using non inhibited wells. IC50 curves were fitted to a classical Langmuir equilibrium model with Hill slope using XLFIT (IDBS).
# P99 ampC = target: T7, P99 ampC (Enterobacter cloacae, UniProt P05364); test: biochemical
# T7 construct: made in house; host or cells: E. coli
# T7 sequence (P05364 21-381): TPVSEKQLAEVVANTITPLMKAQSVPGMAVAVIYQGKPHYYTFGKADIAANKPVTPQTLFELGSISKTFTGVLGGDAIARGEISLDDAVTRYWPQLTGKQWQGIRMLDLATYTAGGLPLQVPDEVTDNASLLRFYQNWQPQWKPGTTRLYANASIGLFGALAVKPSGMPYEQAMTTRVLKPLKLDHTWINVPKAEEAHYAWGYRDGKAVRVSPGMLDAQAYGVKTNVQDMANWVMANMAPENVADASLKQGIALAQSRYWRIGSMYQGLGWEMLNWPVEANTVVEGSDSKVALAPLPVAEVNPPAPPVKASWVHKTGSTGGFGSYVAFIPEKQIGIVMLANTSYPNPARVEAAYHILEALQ
# Experimental: as §1, §2
# PAE ampC = PAE ampC (Pseudomonas aeruginosa, UniProt P24735); test: biochemical
# Chain of PAE ampC (P24735 27-397): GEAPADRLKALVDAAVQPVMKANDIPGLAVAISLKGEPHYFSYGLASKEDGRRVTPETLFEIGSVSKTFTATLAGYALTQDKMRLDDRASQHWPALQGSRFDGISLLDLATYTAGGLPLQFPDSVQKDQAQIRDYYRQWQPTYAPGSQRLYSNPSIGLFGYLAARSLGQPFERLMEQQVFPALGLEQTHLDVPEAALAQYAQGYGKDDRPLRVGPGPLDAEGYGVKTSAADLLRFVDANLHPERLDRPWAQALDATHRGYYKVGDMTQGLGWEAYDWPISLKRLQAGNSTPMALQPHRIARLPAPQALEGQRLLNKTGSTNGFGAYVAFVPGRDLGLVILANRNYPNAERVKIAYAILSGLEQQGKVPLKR
# Experimental: as §1, §2
# SAU PC1 = SAU PC1 (Staphylococcus aureus, UniProt P00807); test: biochemical
# Chain of SAU PC1 (P00807 25-281): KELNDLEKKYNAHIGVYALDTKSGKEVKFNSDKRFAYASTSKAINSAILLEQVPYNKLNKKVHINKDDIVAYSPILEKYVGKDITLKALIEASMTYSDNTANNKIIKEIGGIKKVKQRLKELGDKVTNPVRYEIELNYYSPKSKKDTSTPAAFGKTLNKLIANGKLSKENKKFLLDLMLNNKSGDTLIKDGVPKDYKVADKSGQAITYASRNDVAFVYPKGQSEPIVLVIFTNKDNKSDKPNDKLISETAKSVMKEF
# Experimental: as §1, §2
# [1] = target: CMY-37 (Citrobacter freundii); test: β-lactamase inhibitory activity, IC50 (nitrocefin hydrolysis); format: biochemical
# Chain of CMY-37 (Citrobacter freundii) (A0A9R8 21-381): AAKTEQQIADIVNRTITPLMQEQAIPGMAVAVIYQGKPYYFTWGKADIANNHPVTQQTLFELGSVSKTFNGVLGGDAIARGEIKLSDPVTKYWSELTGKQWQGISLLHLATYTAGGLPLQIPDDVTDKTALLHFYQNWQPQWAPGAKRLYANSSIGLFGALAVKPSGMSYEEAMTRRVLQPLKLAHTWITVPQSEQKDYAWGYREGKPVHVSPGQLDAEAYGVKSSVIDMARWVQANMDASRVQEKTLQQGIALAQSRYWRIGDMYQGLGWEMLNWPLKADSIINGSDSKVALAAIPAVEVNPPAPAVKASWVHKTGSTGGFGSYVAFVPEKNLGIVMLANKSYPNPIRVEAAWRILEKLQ
# Experimental: as §1, §2
# OXA-11 = target: T8, OXA-11 (Pseudomonas aeruginosa, UniProt Q06778); test: as above; format: biochemical
# T8 construct: made in house; host or cells: E. coli
# T8 sequence (Q06778 21-266): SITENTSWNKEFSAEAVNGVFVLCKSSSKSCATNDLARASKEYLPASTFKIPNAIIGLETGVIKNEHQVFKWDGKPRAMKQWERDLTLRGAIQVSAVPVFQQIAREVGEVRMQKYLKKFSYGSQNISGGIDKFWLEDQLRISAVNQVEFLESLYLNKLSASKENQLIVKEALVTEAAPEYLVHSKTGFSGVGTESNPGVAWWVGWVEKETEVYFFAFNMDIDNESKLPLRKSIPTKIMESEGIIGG
# Experimental: as §1, §2
# OXA-58 = target: T9, OXA-58 (Acinetobacter baumannii, UniProt Q2TR58); test: as above; format: biochemical
# T9 construct: made in house; host or cells: E. coli
# T9 sequence (Q2TR58 19-280, species assumed): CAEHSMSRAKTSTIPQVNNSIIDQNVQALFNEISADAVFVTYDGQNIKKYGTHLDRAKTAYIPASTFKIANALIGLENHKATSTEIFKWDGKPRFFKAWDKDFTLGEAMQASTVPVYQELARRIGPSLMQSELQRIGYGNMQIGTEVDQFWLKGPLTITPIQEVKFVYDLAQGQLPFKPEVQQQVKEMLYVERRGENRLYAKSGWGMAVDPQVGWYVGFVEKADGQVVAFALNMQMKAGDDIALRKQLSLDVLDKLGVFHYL
# Experimental: as §1, §2
# OXA-1 = target: T10, OXA-1 (Escherichia coli, UniProt P13661); test: biochemical
# T10 construct: made in house; host or cells: E. coli
# T10 sequence (P13661 26-276): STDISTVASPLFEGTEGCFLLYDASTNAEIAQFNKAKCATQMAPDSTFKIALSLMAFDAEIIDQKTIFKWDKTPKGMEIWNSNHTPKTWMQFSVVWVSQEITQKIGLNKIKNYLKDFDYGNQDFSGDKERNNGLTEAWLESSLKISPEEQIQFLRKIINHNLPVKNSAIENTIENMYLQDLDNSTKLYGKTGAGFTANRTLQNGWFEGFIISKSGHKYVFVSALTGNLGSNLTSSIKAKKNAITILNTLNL
# OXA-15 = target: T11, OXA-15 (Pseudomonas aeruginosa, UniProt Q51574); test: biochemical
# T11 construct: made in house; host or cells: E. coli
# T11 sequence (Q51574 22-275): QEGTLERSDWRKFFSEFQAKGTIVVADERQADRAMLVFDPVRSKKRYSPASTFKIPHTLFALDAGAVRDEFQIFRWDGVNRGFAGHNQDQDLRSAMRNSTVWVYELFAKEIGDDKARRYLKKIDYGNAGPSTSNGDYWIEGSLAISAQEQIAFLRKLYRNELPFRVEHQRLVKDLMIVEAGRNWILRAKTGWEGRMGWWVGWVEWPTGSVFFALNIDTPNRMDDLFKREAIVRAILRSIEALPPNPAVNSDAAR
# OXA-23 = target: T12, OXA-23 (Acinetobacter baumannii, UniProt Q9L4P2); test: biochemical
# T12 construct: made in house; host or cells: E. coli
# T12 sequence (Q9L4P2 18-273): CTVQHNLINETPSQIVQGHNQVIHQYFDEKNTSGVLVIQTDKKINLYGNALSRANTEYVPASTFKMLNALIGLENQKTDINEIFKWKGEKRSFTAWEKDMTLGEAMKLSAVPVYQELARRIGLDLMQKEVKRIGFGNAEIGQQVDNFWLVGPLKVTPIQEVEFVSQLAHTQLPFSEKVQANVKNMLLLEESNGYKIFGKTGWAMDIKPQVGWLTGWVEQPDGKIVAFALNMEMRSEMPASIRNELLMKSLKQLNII
# OXA-48 = target: T13, OXA-48 (Klebsiella pneumoniae, UniProt Q6XEC0); test: biochemical
# T13 construct: made in house; host or cells: E. coli
# T13 sequence (Q6XEC0 23-265 limits assumed): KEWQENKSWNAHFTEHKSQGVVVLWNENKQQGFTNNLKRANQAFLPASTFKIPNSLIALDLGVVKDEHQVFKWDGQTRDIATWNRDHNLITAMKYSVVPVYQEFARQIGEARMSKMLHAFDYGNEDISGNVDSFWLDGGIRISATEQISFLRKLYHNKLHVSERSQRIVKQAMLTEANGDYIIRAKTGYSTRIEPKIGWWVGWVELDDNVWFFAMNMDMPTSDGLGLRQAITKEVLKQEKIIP
# OXA-51 = OXA-51 (Acinetobacter baumannii, UniProt Q5QT35)
# Chain of OXA-51 (Q5QT35 26-274): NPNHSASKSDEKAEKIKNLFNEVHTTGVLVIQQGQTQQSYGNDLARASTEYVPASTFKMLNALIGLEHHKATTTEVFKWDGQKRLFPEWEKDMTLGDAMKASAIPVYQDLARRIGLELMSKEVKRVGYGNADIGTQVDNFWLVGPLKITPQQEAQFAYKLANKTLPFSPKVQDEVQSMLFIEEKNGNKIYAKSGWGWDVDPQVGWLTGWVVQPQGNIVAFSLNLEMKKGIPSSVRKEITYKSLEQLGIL
# Experimental: as §1, §2
# [2] = Rat intraduodenal bioavailability determination (Method 3); format: in vivo, Sprague-Dawley (SD) rats; conditions: male, Sprague-Dawley, AF1 titrated in plasma
# [3] = Mouse oral bioavailability determination, CEFIXIME/Example 3 combination (Method 4); parameters: species or system Swiss Mouse; conditions: male, Swiss; Mouse; intravenous 30 mg/kg; AF1 titrated in plasma; read-out: AUC0-∞
# Experimental: Water and food were available ad libitum throughout the study. Mouse were handled in accordance with the institutional and national guidelines for the care and use of laboratory animals. […] Drugs were administered by oral gavage using feeding needle. […] Plasma samples were stored at -80° C. until bioanalysis. […] Plasma samples bioanalysis and data analysis The plasma samples (20 μl) were thawed at 0° C. […] Standard samples were prepared by spiking the blank plasma into concentrations 10-5 000 ng/ml and otherwise treated as the samples. […] Mass spectrometric detection involved electrospray ionization in the negative mode followed by multiple reaction monitoring of the drugs and internal standard transitions. Actual drug concentrations were deduced from interpolation of the standard curve. The pharmacokinetic parameters were calculated using XLfit (IDBS) and Excel (Microsoft) software, using standard non-compartmental methods. The intraduodenal bioavailability was calculated by dividing the AUC obtained from the intraduodenal administration by the AUC obtained from the intravenous administration.
# [4] = test system: Proteus mirabilis (PMI) isolates; test: microbe, parasite or virus in culture; format: cell-based
# Experimental: (§3) Method 2: MIC of Compounds Alone and Combined with Antibacterials Against Bacterial Isolates.
# (§4) Compounds of the present invention were assessed against genotyped bacterial strains (Table 3, 4) alone or in combination with an antibacterial (Table 2). […] Log phase bacterial suspensions were adjusted to a final density of 5·10^5 CFU/mL in cation-adjusted Mueller-Hinton broth (ca-MHB; Becton-Dickinson and Company) and added to each well (98 μL). Microplates were incubated for 16-20 h at 35° C. in ambient air. The MIC of the compounds was defined as the lowest concentration of said compounds that prevented bacterial growth as read by visual inspection. The MIC of ATB at each compound concentration was defined as the lowest concentration of ATB that prevented bacterial growth as read by visual inspection.
# [5] = test system: Citrobacter freundii (CFR) isolates; test: MIC of compounds alone and combined with antibacterials, broth microdilution (CLSI); format: cell-based; conditions: Citrobacter freundii
# Experimental: as §3, §4
# [6] = test system: Enterobacter aerogenes (EAE) isolates; test: as above; format: cell-based; conditions: Klebsiella aerogenes
# Experimental: as §3, §4
# [7] = test system: Escherichia coli (ECO) isolates; test: as above; format: cell-based; conditions: Escherichia coli, alone
# Experimental: as §3, §4
# [8] = test system: Klebsiella pneumoniae (KPN) isolates; test: as above; format: cell-based
# Experimental: as §3, §4
# [9] = test system: Providencia stuartii (PST) isolates; test: as above; format: cell-based; conditions: Providencia stuartii
# Experimental: as §3, §4
# [10] = test system: Serratia marcescens (SMA) isolates; test: as above; format: cell-based; conditions: Serratia marcescens
# Experimental: as §3, §4
# T1 sequence (P62593 24-286 limits assumed): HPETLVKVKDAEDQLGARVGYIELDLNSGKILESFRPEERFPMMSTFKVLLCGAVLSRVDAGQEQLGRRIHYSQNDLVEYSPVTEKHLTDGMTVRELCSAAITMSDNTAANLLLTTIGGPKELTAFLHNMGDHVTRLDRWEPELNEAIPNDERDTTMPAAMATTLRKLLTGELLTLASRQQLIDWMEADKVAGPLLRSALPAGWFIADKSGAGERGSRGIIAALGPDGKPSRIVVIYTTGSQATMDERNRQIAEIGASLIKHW
SMILES,pIC50 (SHV-1),pIC50 (SHV-12),pIC50 (CTX-M-15),pIC50 (KPC-2),pIC50 (OXA-40),pIC50 (P99 ampC),pIC50 (PAE ampC),pIC50 (SAU PC1),pIC50 [1],pIC50 (OXA-11),pIC50 (OXA-58),pIC50 (OXA-1),pIC50 (OXA-15),pIC50 (OXA-23),pIC50 (OXA-48),further results
NC(=O)[C@@H]1CC[C@@H]2CN1C(=O)N2OC(F)(F)C(=O)[O-].[Na+] [AF1],9.92,8.96,9.68,7.40,5.68,6.26,6.18,7.15,6.13,6.00,6.40,5.96,7.15,5.77,7.12,"pIC50 (TEM-1; TEM-1, 30 min pre-incubation, nitrocefin 100 μM, read-out: IC50): 9.66; pIC50 (OXA-51): 5.77; AUC(0-inf) ([2]; intravenous 10 mg/kg): 4130 ng·h/mL; AUC(0-inf) ([2]; intravenous 20 mg/kg, Phosphate pH 7.4, solution): 12500 ng·h/mL; AUC(0-inf) [3]: 11200 ng·h/mL"
"N#C[C@@H]1CC[C@@H]2CN1C(=O)N2OC(F)(F)C(=O)[O-].[Na+] [AF2, sodium 2-[[(2S,5R)-2-cyano-7-oxo-1,6-diazabicyclo[3.2.1]octan-6-yl]oxy]-2,2-difluoro-acetate]",8.85,8.96,9.80,7.92,7.92,7.27,6.85,8.51,7.15,7.89,8.68,7.96,8.40,7.96,9.15,"pIC50 (TEM-1): 9.02; pIC50 (OXA-51; OXA-51, 30 min pre-incubation, nitrocefin 100 μM): 7.29; MIC ([4]; PMI UFR127, alone): >32 µg/mL; MIC ([4]; Proteus mirabilis): > 32 µg/mL; MIC [5]: > 32 µg/mL; MIC [6]: > 32 µg/mL; MIC ([7]; ECO 190317): > 32 µg/mL; MIC ([7]; ECO 190457): 16 µg/mL; MIC ([7]; ECO UFR16): > 32 µg/mL; MIC ([7]; ECO UFR20): > 32 µg/mL; MIC ([7]; ECO UFR61O): > 32 µg/mL; MIC ([7]; ECO UFR209): 32 µg/mL; MIC ([8]; KPN 131119, alone): >32 µg/mL; MIC ([8]; KPN 190270, alone): >32 µg/mL; MIC ([8]; KPN UFR25, alone): >32 µg/mL; MIC ([8]; KPN UFR66, alone): >32 µg/mL; MIC ([8]; KPN UFR68, alone): >32 µg/mL; MIC ([8]; Klebsiella pneumoniae): > 32 µg/mL; MIC [9]: > 32 µg/mL; MIC [10]: > 32 µg/mL"
